Results as given in patent US7943770B2, “Fused quinoline derivative and use thereof” (Takeda Pharmaceutical Company Limited, priority 2004, dated 2011).

What follows are compounds tested against T1, hNK2 receptor (Homo sapiens, UniProt P21452) (assay: Radio-ligand ([125I]-NKA) receptor binding inhibitory activity using membrane fraction of hNK2 receptor-expressing CHO cell). Details: membrane fraction of hNK2 receptor-expressing CHO cells, 25° C., 30 min.
T1 construct: host or cells: CHO cells
T1 sequence (P21452 1-398): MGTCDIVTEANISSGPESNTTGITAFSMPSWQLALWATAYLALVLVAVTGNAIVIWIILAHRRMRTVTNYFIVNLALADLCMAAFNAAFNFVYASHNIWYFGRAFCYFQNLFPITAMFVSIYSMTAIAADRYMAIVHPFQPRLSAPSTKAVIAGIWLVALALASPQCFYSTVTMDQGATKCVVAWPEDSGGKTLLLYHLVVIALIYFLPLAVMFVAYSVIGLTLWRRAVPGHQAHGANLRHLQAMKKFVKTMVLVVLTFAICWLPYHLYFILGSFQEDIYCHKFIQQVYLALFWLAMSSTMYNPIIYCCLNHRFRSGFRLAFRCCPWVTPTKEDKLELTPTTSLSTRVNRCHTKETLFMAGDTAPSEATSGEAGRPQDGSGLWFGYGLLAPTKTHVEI
Summary of the method: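 Membranes from hNK2-expressing CHO cells (20 μg/mL suspension) incubated with test compound and [125I]-NKA ([…] solution as added) in Tris-HCl pH 7.4 with BSA, protease inhibitors, 3 mM MnCl2, 25 °C, 30 min. Bound radioactivity by GF/C filtration and scintillation; inhibition expressed relative to specific binding (total minus unlabeled-NKA non-specific).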

| Compound | IC50 [nM] |
| --- | --- |
| O=C(Nc1ccc(F)cc1)N[C@@H]1CCCC[C@@H]1C(=O)N1CC[C@@H]2[C@H](c3ncc[nH]3)Nc3ccccc3[C@@H]21 [Example 298, N-(4-Fluorophenyl)-N′-((1R,2S)-2-{[(3aR,4R,9bR)-4-(1H-imidazol-2-yl)-2,3,3a,4,5,9b-hexahydro-1H-pyrrolo[3,2-c]quinolin-1-yl]carbonyl}cyclohexyl)urea] | < 1 |
| O=C(N[C@@H]1CCCC[C@@H]1C(=O)N1CC[C@@H]2[C@H](c3ccsc3)Nc3ccccc3[C@@H]21)c1ccc2[nH]nnc2c1 [Example 189, N-((1R,2S)-2-{[(3aR,4R,9bR)-4-(3-Thienyl)-2,3,3a,4,5,9b-hexahydro-1H-pyrrolo[3,2-c]quinolin-1-yl]carbonyl}cyclohexyl)-1H-1,2,3-benzotriazole-5-carboxamide] | < 1 |
| COC[C@@H]1Nc2ccccc2[C@H]2[C@@H]1CCN2C(=O)[C@H]1CCCC[C@H]1NC(=O)c1ccc(NCCO)cc1 [Example 266, 4-[(2-Hydroxyethyl)amino]-N-((1R,2S)-2-{[(3aR,4R,9bR)-4-(methoxymethyl)-2,3,3a,4,5,9b-hexahydro-1H-pyrrolo[3,2-c]quinolin-1-yl]carbonyl}cyclohexyl)benzamide] | < 10 |
| CCC[C@@H]1Nc2ccccc2[C@H]2[C@@H]1CCN2C(=O)[C@H]1CCCC[C@H]1NC(=O)c1ccc(OC)cc1 [Example 194, 4-Methoxy-N-((1R,2S)-2-{[(3aR,4S,9bR)-4-propyl-2,3,3a,4,5,9b-hexahydro-1H-pyrrolo[3,2-c]quinolin-1-yl]carbonyl}cyclohexyl)benzamide] | < 1 |
| O=C(CCCCCN1CCOCC1)N[C@@H]1CCCC[C@@H]1C(=O)N1CC[C@@H]2[C@H](c3ccccc3)Nc3ccccc3[C@@H]21 [Example 117, 6-Morpholin-4-yl-N-((1R,2S)-2-{[(3aR,4R,9bR)-4-phenyl-2,3,3a,4,5,9b-hexahydro-1H-pyrrolo[3,2-c]quinolin-1-yl]carbonyl}cyclohexyl)hexanamide] | < 10 |
| COC[C@@H]1Nc2ccccc2[C@H]2[C@@H]1CCN2C(=O)[C@H]1CCCC[C@H]1NC(=O)c1ccc(-c2ncc[nH]2)cc1 [Example 281, 4-(1H-imidazol-2-yl)-N-((1R,2S)-2-{[(3aR,4R,9bR)-4-(methoxymethyl)-2,3,3a,4,5,9b-hexahydro-1H-pyrrolo[3,2-c]quinolin-1-yl]carbonyl}cyclohexyl)benzamide] | < 1 |
| O=C(Nc1ccccc1)N[C@@H]1CCCC[C@@H]1C(=O)N1CC[C@@H]2[C@H](c3ncc[nH]3)Nc3ccccc3[C@@H]21 [Example 293, N-((1R,25)-2-{[(3aR,4R,9bR)-4-(1H-Imidazol-2-yl)-2,3,3a,4,5,9b-hexahydro-1H-pyrrolo[3,2-c]quinolin-1-yl]carbonyl}cyclohexyl)-N′-phenylurea] | < 1 |
| COC[C@@H]1Nc2ccccc2[C@H]2[C@@H]1CCN2C(=O)[C@H]1CCCC[C@H]1NC(=O)c1ccc2[nH]nnc2c1 [Example 219, N-((1R,2S)-2-{[(3aR,4R,9bR)-4-(methoxymethyl)-2,3,3a,4,5,9b-hexahydro-1H-pyrrolo[3,2-c]quinolin-1-yl]carbonyl}cyclohexyl)-1H-1,2,3-benzotriazole-5-carboxamide] | < 1 |
| COC[C@@H]1Nc2ccccc2[C@H]2[C@@H]1CCN2C(=O)[C@H]1CCCC[C@H]1NC(=O)c1ccc(-n2cccn2)nc1 [Example 288, N-((1R,2S)-2-{[(3aR,4R,9bR)-4-(Methoxymethyl)-2,3,3a,4,5,9b-hexahydro-1H-pyrrolo[3,2-c]quinolin-1-yl]carbonyl}cyclohexyl)-6-(1H-pyrazol-1-yl)nicotinamide] | < 1 |
| O=C(N[C@@H]1CCCC[C@@H]1C(=O)N1CC[C@@H]2[C@H](c3nccs3)Nc3ccccc3[C@@H]21)c1ccccc1 (relative stereo) [Example 25, N-((1R,2S)-2-{[(3aR*,4R*,9bR*)-4-(1,3-Thiazol-2-yl)-2,3,3a,4,5,9b-hexahydro-1H-pyrrolo[3,2-c]quinolin-1-yl]carbonyl}cyclohexyl)benzamide] | < 10 |
| COC[C@@H]1Nc2ccccc2[C@H]2[C@@H]1CCN2C(=O)[C@H]1CCCC[C@H]1NC(=O)c1onc2ccccc12 [Example 249, N-((1R,2S)-2-{[(3aR,4R,9bR)-4-(Methoxymethyl)-2,3,3a,4,5,9b-hexahydro-1H-pyrrolo[3,2-c]quinolin-1-yl]carbonyl}cyclohexyl)-2,1-benzisoxazole-3-carboxamide] | < 10 |
| O=C(N[C@@H]1CCCC[C@@H]1C(=O)N1CC[C@@H]2[C@H](c3ccsc3)Nc3ccccc3[C@@H]21)c1ccccc1 [Example 60, N-((1R,2S)-2-{[(3aR,4R,9bR)-4-(3-Thienyl)-2,3,3a,4,5,9b-hexahydro-1H-pyrrolo[3,2-c]quinolin-1-yl]carbonyl}cyclohexyl)benzamide] | < 1 |
| CCNC(=O)N[C@@H]1CCCC[C@@H]1C(=O)N1CC[C@@H]2[C@H](c3ncc[nH]3)Nc3ccccc3[C@@H]21 [Example 295, N-Ethyl-N′-((1R,2S)-2-{[(3aR,4R,9bR)-4-(1H-imidazol-2-yl)-2,3,3a,4,5,9b-hexahydro-1H-pyrrolo[3,2-c]quinolin-1-yl]carbonyl}cyclohexyl)urea] | < 10 |
| O=C(NCCc1ccccc1)N[C@@H]1CCCC[C@@H]1C(=O)N1CC[C@@H]2[C@H](c3ccccc3)Nc3ccccc3[C@@H]21 [Example 146, N-(2-Phenylethyl)-N′-((1R,2S)-2-{[(3aR,4R,9bR)-4-phenyl-2,3,3a,4,5,9b-hexahydro-1H-pyrrolo[3,2-c]quinolin-1-yl]carbonyl}cyclohexyl)urea] | < 10 |
| O=C(N[C@@H]1CCCC[C@@H]1C(=O)N1CC[C@@H]2[C@H](c3ccco3)Nc3ccccc3[C@@H]21)c1ccccc1 (relative stereo) [Example 15, N-((1R,2S)-2-{[(3aR*,4R*,9bR*)-4-(2-Furyl)-2,3,3a,4,5,9b-hexahydro-1H-pyrrolo[3,2-c]quinolin-1-yl]carbonyl}cyclohexyl)benzamide] | < 10 |
| O=C(N[C@@H]1CCCC[C@@H]1C(=O)N1CC[C@@H]2[C@H](c3ccccc3)Nc3ccccc3[C@@H]21)c1ccc(F)cc1 [Example 92, 4-Fluoro-N-((1R,2S)-2-{[(3aR,4R,9bR)-4-phenyl-2,3,3a,4,5,9b-hexahydro-1H-pyrrolo[3,2-c]quinolin-1-yl]carbonyl}cyclohexyl)benzamide] | < 10 |
| Cc1cccc(C(=O)N[C@@H]2CCCC[C@@H]2C(=O)N2CC[C@@H]3[C@H](c4ccccc4)Nc4ccccc4[C@@H]32)c1 [Example 98, 3-Methyl-N-((1R,2S)-2-{[(3aR,4R,9bR)-4-phenyl-2,3,3a,4,5,9b-hexahydro-1H-pyrrolo[3,2-c]quinolin-1-yl]carbonyl}cyclohexyl)benzamide] | < 1 |
| COc1cccc(C(=O)N[C@@H]2CCCC[C@@H]2C(=O)N2CC[C@@H]3[C@H](c4ccccc4)Nc4ccccc4[C@@H]32)c1 [Example 95, 3-Methoxy-N-((1R,2S)-2-{[(3aR,4R,9bR)-4-phenyl-2,3,3a,4,5,9b-hexahydro-1H-pyrrolo[3,2-c]quinolin-1-yl]carbonyl}cyclohexyl)benzamide] | < 10 |

What follows are compounds tested against T1, hNK2 receptor (assay: Antagonistic activity determined by intracellular calcium concentration (FLIPR) using Neurokinin A and hNK2 receptor-expressing CHO cell). Details: test compound 1 μM; increase in intracellular calcium due to Neurokinin A, hNK2 receptor-expressing CHO cells.
Format: cell-based
Method: hNK2 receptor-expressing CHO cells were seeded on a 96 well plate at 3×10^4 cell/well and cultured for 24 hrs. Then the medium was aspirated and 20 mM HEPES (pH 7.4)—HBSS buffer (50 μL) was added. Thereto was added prepared 1× Reagent buffer (50 μL, FLIPR Calcium Assay Kit: Molecular Devices Corporation, Japan) and the mixture was reacted at 37° C. for 1 hr. A test compound diluted with 20 mM HEPES (pH 7.4)—HBSS buffer (50 μL, containing 0.4% dimethyl sulfoxide) was added to examine antagonistic activity of the test compound. Thereafter, 20 nM Neurokinin A solution (50 μL) was added, and change in the intracellular calcium concentration were measured by FLIPR (Molecular Devices Corporation, Japan).

| Compound | Assay of Antagonistic activity Inhibitory rate (%) |
| --- | --- |
| O=C(N[C@@H]1CCCC[C@@H]1C(=O)N1CC[C@@H]2[C@H](c3ccccc3)Nc3ccccc3[C@@H]21)c1ccccc1 [Compound of Example 1] | 45 |

Same assay, conditions: test compound 10 μM; increase in intracellular calcium due to Neurokinin A, hNK2 receptor-expressing CHO cells

| Compound | Assay of Antagonistic activity Inhibitory rate (%) |
| --- | --- |
| O=C(N[C@@H]1CCCC[C@@H]1C(=O)N1CC[C@@H]2[C@H](c3ccccc3)Nc3ccccc3[C@@H]21)c1ccccc1 [Compound of Example 1] | 97 |
